Data as given in patent publication US20250320215A1, “SALTS OF N-[4-(4-[[2-(DIMETHYLAMINO)ETHYL]AMINO]-3-METHYL-1H-PYRAZOLO[3,4-D]PYRIMIDIN-6-YL)-2-FLUOROPHENYL]-2,5-DIFLUOROBENZENESULFONAMIDE AND CRYSTALLINE FORMS THEREOF” (THRYV THERAPEUTICS INC, priority 2022, published 2025).
In brackets after ≈: the same amount, converted by molar mass. Read-outs that look alike come from different tables or passages of the source.

Key:
Assay type in all cases: physicochemical
[1] = Slurry study evaluated by XRPD
Experimental: About 20 mg of Compound 3, Form B was weighed into a sample vial and then 1 mL of solvent was added to make a suspension. The suspension was stirred at room temperature or 50° C. for 3 days and 11 days. Then, the wet solid was collected by filtration and analyzed by XRPD.
20-30 mg of Compound 4 Form B was added in 1 mL of selected solvents at room temperature or 50° C. The suspension was slurried at room temperature or 50° C. for 3 days and 11 days. The wet solids collected from filtration were examined by XRPD. There were four crystal forms obtained by slurrying, including di-mesylate Forms B, C and D as well as mono-mesylate Form G.

[2] = Estimated solubility by solvent addition method via visual assessment; conditions: thermodynamic from solid, room temperature, read-out: Solubility
Experimental: Solubility of Compound 3 Form B was estimated in 30 solvents at room temperature and in 9 organic solvents at 70° C. using solvent addition method via visual assessment.
Protocol: about 3 mg of Compound 3 Form B was weighed into a sample vial and the solvent was added gradually with vortex until the drug solution was clear by observation or a total of 2 mL solvent was added. Then, the estimated solubility (mg/mL) was calculated.
Solubility of Compound 4, Form B was estimated in 18 solvents at room temperature using solvent addition method via visual assessment. About 3 mg of Compound 4, Form B was weighed into a sample vial and the solvent was added gradually with vortex until the solution was clear by observation or a total of 2 mL solvent was added. Then, the estimated solubility (mg/mL) was calculated.

[3] = Solid stability testing (HPLC purity and XRPD)
Experimental: HPLC analysis were performed with an Agilent HPLC 1260 series instrument. HPLC method for stability testing is as follows:
Solid stability testing of Compound 3, Form D was evaluated at the conditions of 60° C. (capped) and 40° C./75% RH (open) for 7 days. Polymorphic form and purity were analyzed by XRPD and HPLC, respectively. […] (capped) and 40° C./75% RH (open) for 7 days.
Solid stability testing of Compound 4 Form B and Form D were evaluated at the conditions of 60° C. (vial close) and 40° C./75% RH (vial open) for 7 days. Polymorphic form and purity were checked by XRPD and HPLC, respectively.

[4] = Water activity study (competition of forms, XRPD); conditions: room temperature
Experimental: Water activity study was performed using Compound 3 Form B (anhydrate) as the input material in EtOH/Water with different water content at RT. About 5 mg of Compound 3, Form B was used to prepare saturated solutions and the solutions were filtered by syringe at RT. 5 mg of Compound 3, Form D were added in the 1 mL of filtrate, and the suspension was slurried at RT for 3 and 7 days. The solids collected after filtration were analyzed by XRPD.
Protocol: excess amount of Compound 4 Form B was used to prepare saturated solutions. 6-8 mg each of Compound 4 Form B and Form D were added in the solutions. The suspension was slurried at room temperature for the corresponding times. Residual solids were collected by filtration with syringe filter, and characterized by XRPD.

[5] = Dynamic vapor sorption/desorption (DVS) with post-DVS XRPD
Experimental: Moisture sorption/desorption data were collected on a DVS Intrinsic. 7-20 mg of a sample was placed into a tared sample chamber and automatically weighed. The anhydrates were analyzed with the following setting parameters:
DVS experiments (FIGS. 17, 19, 21, 34, 35, 48 and 50) and XRPD post-DVS experiments (FIGS. 18, 20, 22, 36, 49 and 51) were conducted in order to study the deliquescence behaviour of the crystalline salts upon expose to humidity.

[6] = slurry in ACN/Water (9/1, v/v) at RT

## Cc1n[nH]c2nc(-c3ccc(NS(=O)(=O)c4cc(F)ccc4F)c(F)c3)nc(NCCN(C)C)c12 [Compound 4 Form B]
[1]; slurry in 2-Me THF at 50° C.
  XRPD Result Day 3/Wet: Form D
  XRPD Result Day 11/Wet: Form D
[1]; slurry in 2-Me THF at RT
  XRPD Result Day 3/Wet: Form D
  XRPD Result Day 11/Wet: Form D
[1]; slurry in ACN at 50° C.
  XRPD Result Day 3/Wet: Form B
  XRPD Result Day 11/Wet: Form B
[1]; slurry in ACN at RT
  XRPD Result Day 3/Wet: Form B
  XRPD Result Day 11/Wet: Form B
[1]; [6]
  XRPD Result Day 3/Wet: Form D
  XRPD Result Day 11/Wet: Form D
[1]; slurry in Acetone at 50° C.
  XRPD Result Day 3/Wet: Form C
  XRPD Result Day 11/Wet: Form D
[1]; slurry in Acetone at RT
  XRPD Result Day 11/Wet: Form D
[1]; slurry in DCM at 50° C.
  XRPD Result Day 3/Wet: Form B
[1]; slurry in DCM at RT
  XRPD Result Day 3/Wet: Form D
  XRPD Result Day 11/Wet: Form D
[1]; slurry in EA at 50° C.
  XRPD Result Day 3/Wet: Form D
  XRPD Result Day 11/Wet: Form D
[1]; slurry in EA at RT
  XRPD Result Day 11/Wet: Form D
[1]; slurry in EtOH at RT
  XRPD Result Day 3/Wet: Form D
  XRPD Result Day 11/Wet: Form D
[1]; slurry in IPA at 50° C.
  XRPD Result Day 3/Wet: Form D
  XRPD Result Day 11/Wet: Form D
[1]; slurry in IPA at RT
  XRPD Result Day 3/Wet: Form D
  XRPD Result Day 11/Wet: Form D
[1]; slurry in IPAC at 50° C.
  XRPD Result Day 3/Wet: Form D
  XRPD Result Day 11/Wet: Form D
[1]; slurry in IPAC at RT
  XRPD Result Day 3/Wet: Form D
  XRPD Result Day 11/Wet: Form D
[1]; slurry in MEK at 50° C.
  XRPD Result Day 3/Wet: Form D
  XRPD Result Day 11/Wet: Form D
[1]; slurry in MEK at RT
  XRPD Result Day 3/Wet: Form D
  XRPD Result Day 11/Wet: Form D
[1]; slurry in MTBE at 50° C.
  XRPD Result Day 3/Wet: Form D
[1]; slurry in MTBE at RT
  XRPD Result Day 11/Wet: Form D
[1]; slurry in MeOH at RT
  XRPD Result Day 3/Wet: Form B
  XRPD Result Day 11/Wet: Form B
[1]; slurry in THF at 50° C.
  XRPD Result Day 3/Wet: Form C
[1]; slurry in THF at RT
  XRPD Result Day 3/Wet: Form C
  XRPD Result Day 11/Wet: Form D
[1]; slurry in Water at RT or 50° C. for 3 days
  XRPD Result: Mono-mesylate Form G was obtained.
[2]; organic solvent or mixture, 2-Me THF
  solubility: < 1500 µg/mL
[2]; organic solvent or mixture, ACN
  solubility: < 1500 µg/mL
[2]; organic solvent or mixture, ACN/Water (9/1, v/v)
  solubility: 15000 to 20000 µg/mL (≈ 29.7 to 39.6 mM)
[2]; organic solvent or mixture, Acetone
  solubility: < 1500 µg/mL
[2]; organic solvent or mixture, DCM
  solubility: < 1500 µg/mL
[2]; organic solvent or mixture, DMA
  solubility: 75000 to 150000 µg/mL (≈ 148 to 297 mM)
[2]; organic solvent or mixture, DMSO
  solubility: > 150000 µg/mL
[2]; organic solvent or mixture, EA
  solubility: < 1500 µg/mL
[2]; organic solvent or mixture, EtOH
  solubility: 3750 to 7500 µg/mL (≈ 7.42 to 14.8 mM)
[2]; organic solvent or mixture, IPA
  solubility: < 1500 µg/mL
[2]; organic solvent or mixture, IPAC
  solubility: < 1500 µg/mL
[2]; organic solvent or mixture, MEK
  solubility: < 1500 µg/mL
[2]; organic solvent or mixture, MTBE
  solubility: < 1500 µg/mL
[2]; organic solvent or mixture, MeOH
  solubility: 12000 to 20000 µg/mL (≈ 23.7 to 39.6 mM)
[2]; organic solvent or mixture, MeOH/Water (9/1, v/v)
  solubility: 75000 to 150000 µg/mL (≈ 148 to 297 mM)
[2]; organic solvent or mixture, NMP
  solubility: > 150000 µg/mL
[2]; organic solvent or mixture, THF
  solubility: < 1500 µg/mL
[2]; Water
  solubility: 75000 to 150000 µg/mL (≈ 148 to 297 mM)
[3]; 40° C./75% RH (open), day 7
  Solid stability: partially converted to Form D
[3]; 60° C. (close), 7 days
  Solid stability: chemically and physically stable
[3]; HPLC, before storage
  Purity, Initial T0: 99.47%
[3]; HPLC, capped/closed vial, 7 days
  Purity - 7 days, 60° C.: 99.41%
[3]; HPLC, open, 7 days
  Purity - 7 days, 40° C./75% RH: 99.18%
[3]; before storage
  XRPD, Initial T0: Form B
[3]; capped/closed vial, 7 days
  XRPD - 7 days, 60° C.: Form B
[4]
  water activity (aw) at which the form is stable / the most stable form: ≤ 0.08
[5]
  Comments: hygroscopicity (DVS): Hygroscopic
  hygroscopicity: hygroscopic
[5]; XRPD after DVS versus before
  Post-DVS XRPD: No change
[5]; at 80% RH (25° C.)
  wt % gain (DVS): 9.16 wt %
[5]; at 80% RH, 25° C.
  water uptake (DVS): 9.16%
[5]; sorption/desorption
  Reversibility (DVS): Reversible
